# Measurements: patent publication US20230391736A1, “3-TETRAZOLYLMETHYL-1,3,5-TRIAZIN-2,4-DIONE COMPOUND INHIBITING CORONAVIRUS 3CL PROTEASE ACTIVITY AND PREPARATION METHOD AND USE THEREOF” (priority 2022, published 2023)
# Where two headings read alike, the source gives them in different places.
# Assays:
# SARS-CoV-2 3CL^pro = SARS-CoV-2 3CL^pro (Severe acute respiratory syndrome coronavirus 2 (2019-nCoV) (SARS-CoV-2), UniProt P0DTD1); assay: biochemical; conditions: for IC50: FRET
# A549 cells = assay: In-vitro cytotoxicity by the MTT method, A549 cells; conditions: 24 hrs
# Experimental: (§1) The in-vitro cytotoxicity of Compounds 1, 12, and 17 was evaluated by the MTT method. HepG2, HEK293 and A549 cells in logarithmic growth phase were respectively trypsinized into a cell suspension. The cell density was adjusted to 5×10^4 cells/mL. 180 μL per well of the cell suspension was inoculated into a sterile 96-well plate at 37° C., and cultured in an incubator at 5% CO2 for 24 hrs. After the cells were attached to the bottom of the plate, 20 μL of the drug solutions over the concentration gradients were respectively added into each well, and 6 replicate wells were set in parallel. Also, a blank group (group without cells and drug) and a control group (group without drug) were set. The system was incubated in an incubator at 37° C. and 5% CO2 for 24 hrs, and then 20 μL per well of a 5 g/L MTT solution was added and incubated for another 4 hrs. After the incubation was completed, the culture medium in the well was gently aspirated, and 100 μL of DMSO was added to each well. Then the crystal was fully dissolved in a shaker for 10 min at a low speed. After that, the absorbency of each well was measured at OD490 nm in an enzymelinked immunodetector, and the survival rate of cells was calculated.
# HepG2 cells = assay: In-vitro cytotoxicity by the MTT method, HepG2 cells; conditions: 24 hrs
# Experimental: as §1
# HEK293 cells = assay: In-vitro cytotoxicity by the MTT method, HEK293 cells; conditions: 24 hrs
# Experimental: as §1
# [1] = class symbols, read-out: IC50 (nM), inhibitory activity against 3CL^pro
# [2] = non-linear regression, read-out: IC50 against 3CL^pro
Structure (SMILES),IC50 (SARS-CoV-2 3CL^pro; [1]) [nM],IC50 (SARS-CoV-2 3CL^pro; [2]) [nM],Survival rate of A549 cells (A549 cells; 1.5625 nM) [%],Survival rate of A549 cells (A549 cells; 3.125 nM) [%],Survival rate of A549 cells (A549 cells; 6.25 nM) [%],Survival rate of A549 cells (A549 cells; 12.5 nM) [%],Survival rate of A549 cells (A549 cells; 25 nM) [%],Survival rate of A549 cells (A549 cells; 50 nM) [%],Survival rate of A549 cells (A549 cells; 100 nM) [%],Survival rate of A549 cells (A549 cells; 200 nM) [%],Survival rate of A549 cells (A549 cells; 400 nM) [%],Survival rate of HepG2 cells (HepG2 cells; 1.5625 nM) [%],Survival rate of HepG2 cells (HepG2 cells; 3.125 nM) [%],Survival rate of HepG2 cells (HepG2 cells; 6.25 nM) [%],Survival rate of HepG2 cells (HepG2 cells; 12.5 nM) [%],Survival rate of HepG2 cells (HepG2 cells; 25 nM) [%],Survival rate of HepG2 cells (HepG2 cells; 50 nM) [%],Survival rate of HepG2 cells (HepG2 cells; 100 nM) [%],Survival rate of HepG2 cells (HepG2 cells; 200 nM) [%],Survival rate of HepG2 cells (HepG2 cells; 400 nM) [%],also measured
Cn1cc2cc(/N=c3\[nH]c(=O)n(Cc4nnn[nH]4)c(=O)n3Cc3ccc(F)cc3)c(Cl)cc2n1 [Compound 12],< 200,184,98.43,96.76,96.86,96.42,95.19,93.96,93.51,92.13,89.12,96.16,94.78,93.92,91.45,88.16,87.52,83.43,82.56,77.32,"inhibition at 0.0001 µM (SARS-CoV-2 3CL^pro; concentration 0.1 nM, read-out: inhibition percentage of 3CL^pro): 0.52%; inhibition at 0.001 µM (SARS-CoV-2 3CL^pro; concentration 1 nM, read-out: inhibition percentage of 3CL^pro): 1.86%; inhibition at 0.005 µM (SARS-CoV-2 3CL^pro; concentration 5 nM, read-out: inhibition percentage of 3CL^pro): 4.98%; inhibition at 0.01 µM (SARS-CoV-2 3CL^pro; concentration 10 nM, read-out: inhibition percentage of 3CL^pro): 7.28%; inhibition at 0.02 µM (SARS-CoV-2 3CL^pro; concentration 20 nM, read-out: inhibition percentage of 3CL^pro): 9.3%; inhibition at 0.03 µM (SARS-CoV-2 3CL^pro; concentration 30 nM, read-out: inhibition percentage of 3CL^pro): 12.3%; inhibition at 0.05 µM (SARS-CoV-2 3CL^pro; concentration 50 nM, read-out: inhibition percentage of 3CL^pro): 18.8%; inhibition at 0.1 µM (SARS-CoV-2 3CL^pro; concentration 100 nM, read-out: inhibition percentage of 3CL^pro): 40%; inhibition at 0.5 µM (SARS-CoV-2 3CL^pro; concentration 500 nM, read-out: inhibition percentage of 3CL^pro): 70.2%; inhibition at 1 µM (SARS-CoV-2 3CL^pro; concentration 1000 nM, read-out: inhibition percentage of 3CL^pro): 85.4%; Survival rate of HEK293 cells (HEK293 cells; 1.5625 nM): 93.44%; Survival rate of HEK293 cells (HEK293 cells; 3.125 nM): 92.73%; Survival rate of HEK293 cells (HEK293 cells; 6.25 nM): 91.16%; Survival rate of HEK293 cells (HEK293 cells; 12.5 nM): 89.80%; Survival rate of HEK293 cells (HEK293 cells; 25 nM): 85.34%; Survival rate of HEK293 cells (HEK293 cells; 50 nM): 82.99%; Survival rate of HEK293 cells (HEK293 cells; 100 nM): 82.76%; Survival rate of HEK293 cells (HEK293 cells; 200 nM): 78.93%; Survival rate of HEK293 cells (HEK293 cells; 400 nM): 77.46%"
Cn1cc2cc(/N=c3\[nH]c(=O)n(Cc4nnn[nH]4)c(=O)n3Cc3cc(F)c(F)cc3F)c(Cl)cc2n1 [Compound 1],< 200,120,98.18,98.39,98.23,96.93,96.16,96.33,95.75,93.23,92.19,97.17,96.73,95.83,93.62,90.15,89.09,85.37,84.76,82.33,inhibition percentage of 3CL^pro (SARS-CoV-2 3CL^pro; concentration 0.1 nM): 0.86%; inhibition percentage of 3CL^pro (SARS-CoV-2 3CL^pro; concentration 1 nM): 2.12%; inhibition percentage of 3CL^pro (SARS-CoV-2 3CL^pro; concentration 5 nM): 7.77%; inhibition percentage of 3CL^pro (SARS-CoV-2 3CL^pro; concentration 10 nM): 9.75%; inhibition percentage of 3CL^pro (SARS-CoV-2 3CL^pro; concentration 20 nM): 14.30%; inhibition percentage of 3CL^pro (SARS-CoV-2 3CL^pro; concentration 30 nM): 18.23%; inhibition percentage of 3CL^pro (SARS-CoV-2 3CL^pro; concentration 50 nM): 21.89%; inhibition percentage of 3CL^pro (SARS-CoV-2 3CL^pro; concentration 100 nM): 58.21%; inhibition percentage of 3CL^pro (SARS-CoV-2 3CL^pro; concentration 500 nM): 73.44%; inhibition percentage of 3CL^pro (SARS-CoV-2 3CL^pro; concentration 1000 nM): 89.12%; Survival rate of HEK293 cells (HEK293 cells; 1.5625 nM): 95.07%; Survival rate of HEK293 cells (HEK293 cells; 3.125 nM): 95.62%; Survival rate of HEK293 cells (HEK293 cells; 6.25 nM): 93.10%; Survival rate of HEK293 cells (HEK293 cells; 12.5 nM): 90.50%; Survival rate of HEK293 cells (HEK293 cells; 25 nM): 88.23%; Survival rate of HEK293 cells (HEK293 cells; 50 nM): 87.10%; Survival rate of HEK293 cells (HEK293 cells; 100 nM): 82.87%; Survival rate of HEK293 cells (HEK293 cells; 200 nM): 82.56%; Survival rate of HEK293 cells (HEK293 cells; 400 nM): 80.83%
CCn1nnnc1Cn1c(=O)[nH]/c(=N\c2cc3cn(C)nc3cc2Cl)n(Cc2cc(F)c(F)cc2F)c1=O [Compound 17],< 200,160,98.02,97.96,97.24,96.38,95.77,94.13,94.21,93.31,91.33,95.56,95.79,94.43,91.02,90.46,87.13,83.85,80.42,76.13,inhibition percentage of 3CL^pro (SARS-CoV-2 3CL^pro; concentration 0.1 nM): 0.76%; inhibition percentage of 3CL^pro (SARS-CoV-2 3CL^pro; concentration 1 nM): 1.93%; inhibition percentage of 3CL^pro (SARS-CoV-2 3CL^pro; concentration 5 nM): 6.21%; inhibition percentage of 3CL^pro (SARS-CoV-2 3CL^pro; concentration 10 nM): 7.67%; inhibition percentage of 3CL^pro (SARS-CoV-2 3CL^pro; concentration 20 nM): 12.76%; inhibition percentage of 3CL^pro (SARS-CoV-2 3CL^pro; concentration 30 nM): 17.92%; inhibition percentage of 3CL^pro (SARS-CoV-2 3CL^pro; concentration 50 nM): 25.23%; inhibition percentage of 3CL^pro (SARS-CoV-2 3CL^pro; concentration 100 nM): 44.76%; inhibition percentage of 3CL^pro (SARS-CoV-2 3CL^pro; concentration 500 nM): 68.52%; inhibition percentage of 3CL^pro (SARS-CoV-2 3CL^pro; concentration 1000 nM): 85.36%; Survival rate of HEK293 cells (HEK293 cells; 1.5625 nM): 93.79%; Survival rate of HEK293 cells (HEK293 cells; 3.125 nM): 93.12%; Survival rate of HEK293 cells (HEK293 cells; 6.25 nM): 93.48%; Survival rate of HEK293 cells (HEK293 cells; 12.5 nM): 90.79%; Survival rate of HEK293 cells (HEK293 cells; 25 nM): 85.73%; Survival rate of HEK293 cells (HEK293 cells; 50 nM): 84.32%; Survival rate of HEK293 cells (HEK293 cells; 100 nM): 83.83%; Survival rate of HEK293 cells (HEK293 cells; 200 nM): 79.45%; Survival rate of HEK293 cells (HEK293 cells; 400 nM): 78.03%
